In ChEMBL document CHEMBL1201862, “PubChem BioAssay data set” (2004):
The source made the active and inactive calls.

Assays:
[1] = biological target: T1, Corticotropin-releasing factor receptor 2/Corticotropin-releasing factor-binding protein (Homo sapiens, UniProt P24387+Q13324); assay: activators of CRF receptor 2 with binding protein – uHTS hits, confirmation (AID 602473); type: functional; settings: read-out: EC50_Mean
T1 sequence (Q13324 whole entry): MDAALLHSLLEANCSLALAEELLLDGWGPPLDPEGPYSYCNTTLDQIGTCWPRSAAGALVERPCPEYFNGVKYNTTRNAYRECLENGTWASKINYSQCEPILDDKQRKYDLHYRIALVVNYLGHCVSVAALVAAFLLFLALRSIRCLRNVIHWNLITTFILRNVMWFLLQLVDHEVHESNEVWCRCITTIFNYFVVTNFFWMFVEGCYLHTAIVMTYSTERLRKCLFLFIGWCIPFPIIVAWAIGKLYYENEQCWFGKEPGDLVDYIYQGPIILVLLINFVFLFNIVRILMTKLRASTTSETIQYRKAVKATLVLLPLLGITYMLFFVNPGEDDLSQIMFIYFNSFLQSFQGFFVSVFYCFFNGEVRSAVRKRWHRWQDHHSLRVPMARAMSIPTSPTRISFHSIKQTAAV
T1 sequence (P24387 whole entry): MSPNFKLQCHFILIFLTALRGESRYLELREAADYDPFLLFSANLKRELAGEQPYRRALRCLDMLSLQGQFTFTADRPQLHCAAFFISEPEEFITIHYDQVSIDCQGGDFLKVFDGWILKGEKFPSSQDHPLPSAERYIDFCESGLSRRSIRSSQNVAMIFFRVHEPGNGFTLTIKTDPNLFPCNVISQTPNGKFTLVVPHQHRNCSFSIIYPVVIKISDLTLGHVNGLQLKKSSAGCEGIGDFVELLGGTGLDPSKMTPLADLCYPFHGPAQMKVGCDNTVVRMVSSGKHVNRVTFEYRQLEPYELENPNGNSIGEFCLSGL

[2] = blockers of CRF-binding protein–CRF-R2 complex – cell-based, uHTS hits, 384-well, dose response (AID 651639); type: functional, Homo sapiens; settings: read-out: IC50_Mean
[3] = biological target: T1, Corticotropin-releasing factor receptor 2/Corticotropin-releasing factor-binding protein; assay: Dose Response confirmation of uHTS hits for small molecule antagonists of the CRF-binding protein and CRF-R2 receptor complex.; type: functional; settings: read-out: IC50_Mean
[4] = biological target: Sentrin-specific protease 1 (Homo sapiens, UniProt Q9P0U3); assay: Dose response confirmation of small molecule inhibitors of the catalytic domain of the SUMO protease, SENP1 in a FRET assay.; type: functional; settings: read-out: IC50_Mean
[5] = biological target: Interleukin-8 (Homo sapiens, UniProt P10145); assay: Dose Response confirmation of uHTS small molecule hits for cystic fibrosis induced NFkb Inhibitors in a PAF-induced IL8 counterscreen.; type: functional; settings: read-out: IC50_Mean
[6] = blockers of HIV-1 envelope-mediated cell-cell fusion – cherry-pick, dose response (AID 652057); type: functional, cell-based
[7] = HIV-1 AD8 envelope cell-cell fusion blockers – cherry-pick, dose response (AID 652062); type: functional, cell-based;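 also: luciferase signal from cell-cell fusion driven by HIV-1 clade B AD8 Env; potency is for inhibitors of fusion seen as a drop in luminescence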
[8] = off-target signal loss in HeLa-CEM21 co-culture – HeLa F-luc CTL cells, cherry-picked, counter-screen for HIV-1 Env fusion inhibitor project, dose response (AID 652040); type: functional, cell-based;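 also: potency for signal decrease marking cytotoxic or nonspecific inhibition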
[9] = biological target: T2, Small ubiquitin-related modifier 2 (Homo sapiens, UniProt P61956); assay: disruption of SUMO2 interaction with SIM peptide – biochemical, fluorescence polarization, uHTS hits, selectivity assay for SUMO1 interaction inhibitor project, dose response (AID 624385); type: functional; settings: read-out: IC50_Mean
[10] = biological target: Genome polyprotein (dengue virus type 2, UniProt P29990); assay: flavivirus cap methylation enzyme inhibition – biochemical, confirmation dose response, primary screen (AID 588689); type: functional
[11] = biological target: T3, Rac GTPase-activating protein 1 (Homo sapiens, UniProt Q9H0H5); assay: blockers of MgcRacGAP-driven Rac1 GTP hydrolysis – biochemical, ADP Hunter fluorescence, primary and confirmatory, confirmation (AID 624330); type: functional
T3 sequence (Q9H0H5 whole entry): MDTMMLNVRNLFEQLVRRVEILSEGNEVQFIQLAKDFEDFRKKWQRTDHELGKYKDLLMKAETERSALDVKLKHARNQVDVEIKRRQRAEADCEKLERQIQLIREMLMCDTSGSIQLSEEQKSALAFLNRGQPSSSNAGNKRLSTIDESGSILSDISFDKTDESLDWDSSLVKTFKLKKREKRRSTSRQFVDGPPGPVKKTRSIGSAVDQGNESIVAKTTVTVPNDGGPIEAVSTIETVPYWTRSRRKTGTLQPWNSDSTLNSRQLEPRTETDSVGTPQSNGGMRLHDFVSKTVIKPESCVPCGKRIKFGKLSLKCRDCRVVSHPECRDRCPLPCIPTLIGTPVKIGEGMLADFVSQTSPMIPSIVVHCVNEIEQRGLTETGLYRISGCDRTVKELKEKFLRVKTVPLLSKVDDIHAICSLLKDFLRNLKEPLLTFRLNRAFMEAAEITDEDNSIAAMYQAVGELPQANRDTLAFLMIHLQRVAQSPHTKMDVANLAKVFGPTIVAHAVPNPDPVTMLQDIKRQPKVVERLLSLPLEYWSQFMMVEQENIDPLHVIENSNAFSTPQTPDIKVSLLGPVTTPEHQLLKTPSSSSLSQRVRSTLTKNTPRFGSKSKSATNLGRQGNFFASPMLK

[12] = biological target: T4, Small ubiquitin-related modifier 1 (Homo sapiens, UniProt P63165); assay: SUMO1 protein interaction blockers, potency – biochemical, fluorescence polarization, uHTS hits, dose response (AID 624382); type: functional; settings: read-out: IC50_Mean
[13] = biological target: T4, Small ubiquitin-related modifier 1; assay: SUMO1 protein-protein binding blockers, potency – biochemical, FRET, dose response (AID 624383); type: functional; settings: read-out: IC50_Mean
[14] = biological target: T2, Small ubiquitin-related modifier 2; assay: SUMO2 binding disruption by SUMO1 hits – biochemical, FRET, human SUMO2, uHTS hits, selectivity assay for SUMO1 interaction inhibitor project, dose response (AID 624384); type: functional; settings: read-out: IC50_Mean
[15] = biological target: T5, Probable nicotinate-nucleotide adenylyltransferase (Staphylococcus aureus (strain N315), UniProt P65502); type: functional, Staphylococcus aureus subsp. aureus N315;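 as to IC50 Mean: confirmatory dose-response retesting of NadD inhibitor hits first found in an ultra-high-throughput screen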
[16] = biological target: Carboxy-terminal domain RNA polymerase II polypeptide A small phosphatase 1 (Homo sapiens, UniProt Q9GZU7); assay: CTDSP1 inhibitors, concentration-response, biochemical, absorbance readout, ultra-high-throughput screen actives (AID 540297); type: functional
[17] = biological target: T5, Probable nicotinate-nucleotide adenylyltransferase; type: functional, Staphylococcus aureus subsp. aureus N315; settings: read-out: IC50_Mean
[18] = mouse fibroblast viability loss – cell-based, cherry-pick samples, set 2, cytotoxicity control for T. cruzi growth inhibitor project, dose response (AID 651817); type: functional; settings: NIH3T3

T2 sequence (P61956 whole entry): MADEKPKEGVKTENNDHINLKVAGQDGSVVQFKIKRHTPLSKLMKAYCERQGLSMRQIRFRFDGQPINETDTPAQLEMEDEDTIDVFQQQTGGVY
T5 sequence (P65502 whole entry, the tested form may be a part): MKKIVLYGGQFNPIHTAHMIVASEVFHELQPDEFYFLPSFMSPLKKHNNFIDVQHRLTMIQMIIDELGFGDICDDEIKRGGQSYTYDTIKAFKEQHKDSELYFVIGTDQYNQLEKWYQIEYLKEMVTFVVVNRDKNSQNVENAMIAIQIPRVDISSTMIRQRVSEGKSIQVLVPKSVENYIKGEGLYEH
T4 sequence (P63165 whole entry): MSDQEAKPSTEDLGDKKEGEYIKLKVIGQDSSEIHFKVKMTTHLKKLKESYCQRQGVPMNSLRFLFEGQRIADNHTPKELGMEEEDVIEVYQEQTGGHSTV
Genome polyprotein, sequence (P29990 2492-3391 limits assumed): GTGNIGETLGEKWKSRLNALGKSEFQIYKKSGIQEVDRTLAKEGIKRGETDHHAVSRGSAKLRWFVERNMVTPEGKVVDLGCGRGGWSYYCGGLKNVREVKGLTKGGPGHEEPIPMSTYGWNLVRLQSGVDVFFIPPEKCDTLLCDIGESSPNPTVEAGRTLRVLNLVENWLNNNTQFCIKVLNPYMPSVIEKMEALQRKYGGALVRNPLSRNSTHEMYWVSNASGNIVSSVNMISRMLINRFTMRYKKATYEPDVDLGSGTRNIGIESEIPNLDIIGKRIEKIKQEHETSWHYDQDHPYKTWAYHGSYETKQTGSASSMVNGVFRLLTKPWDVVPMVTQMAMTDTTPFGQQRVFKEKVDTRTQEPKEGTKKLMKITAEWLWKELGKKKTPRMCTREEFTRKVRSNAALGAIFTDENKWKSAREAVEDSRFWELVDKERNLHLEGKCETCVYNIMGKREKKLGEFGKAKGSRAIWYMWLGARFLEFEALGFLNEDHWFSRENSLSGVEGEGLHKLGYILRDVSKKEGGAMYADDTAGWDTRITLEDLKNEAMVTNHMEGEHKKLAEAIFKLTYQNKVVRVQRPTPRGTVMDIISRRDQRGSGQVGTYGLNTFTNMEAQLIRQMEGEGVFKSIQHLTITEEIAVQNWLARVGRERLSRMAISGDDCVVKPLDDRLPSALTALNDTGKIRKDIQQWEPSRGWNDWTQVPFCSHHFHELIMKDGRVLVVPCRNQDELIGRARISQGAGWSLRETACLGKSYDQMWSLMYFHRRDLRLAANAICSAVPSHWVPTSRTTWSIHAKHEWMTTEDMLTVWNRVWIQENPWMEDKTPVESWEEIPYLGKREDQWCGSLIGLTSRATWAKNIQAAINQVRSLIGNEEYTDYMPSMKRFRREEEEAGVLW
Sentrin-specific protease 1, sequence (Q9P0U3 whole entry, the tested form may be a part): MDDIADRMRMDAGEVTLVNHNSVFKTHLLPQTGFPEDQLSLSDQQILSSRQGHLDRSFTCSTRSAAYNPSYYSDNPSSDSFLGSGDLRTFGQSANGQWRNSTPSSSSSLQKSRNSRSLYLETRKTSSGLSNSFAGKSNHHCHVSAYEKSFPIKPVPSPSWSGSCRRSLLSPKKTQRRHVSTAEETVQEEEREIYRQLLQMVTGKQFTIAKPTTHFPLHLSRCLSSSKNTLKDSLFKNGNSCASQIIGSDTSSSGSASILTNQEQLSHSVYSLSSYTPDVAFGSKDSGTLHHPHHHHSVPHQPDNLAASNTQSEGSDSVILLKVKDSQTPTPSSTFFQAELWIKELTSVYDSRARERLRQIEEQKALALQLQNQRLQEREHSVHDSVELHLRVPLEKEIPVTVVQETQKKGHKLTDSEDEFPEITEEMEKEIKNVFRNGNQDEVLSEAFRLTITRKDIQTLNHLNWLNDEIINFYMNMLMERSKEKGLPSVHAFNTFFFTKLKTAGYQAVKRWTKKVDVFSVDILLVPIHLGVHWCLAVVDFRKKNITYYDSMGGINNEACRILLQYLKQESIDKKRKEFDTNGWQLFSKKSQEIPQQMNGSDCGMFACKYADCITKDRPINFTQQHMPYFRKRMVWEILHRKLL
Interleukin-8, sequence (P10145 whole entry, the tested form may be a part): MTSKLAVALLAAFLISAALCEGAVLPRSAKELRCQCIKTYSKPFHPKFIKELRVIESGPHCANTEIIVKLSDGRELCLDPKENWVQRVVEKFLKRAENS
Carboxy-terminal domain RNA polymerase II polypeptide A small phosphatase 1, sequence (Q9GZU7 whole entry, the tested form may be a part): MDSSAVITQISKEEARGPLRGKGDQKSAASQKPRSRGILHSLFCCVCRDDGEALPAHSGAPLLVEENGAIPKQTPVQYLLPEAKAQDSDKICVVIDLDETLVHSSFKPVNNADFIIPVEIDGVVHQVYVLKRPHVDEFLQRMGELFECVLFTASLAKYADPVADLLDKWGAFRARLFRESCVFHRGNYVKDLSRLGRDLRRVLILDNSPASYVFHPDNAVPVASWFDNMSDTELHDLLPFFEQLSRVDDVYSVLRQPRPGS

Cc1noc(C)c1COC(=O)c1cc(C)n(-c2ccccc2)c1C
EC50 [1]: > 53 µM (inactive) | IC50 [2]: > 20 µM (inactive) | IC50 [3]: 6.04 µM (active)

Cc1nc2ccc(NS(=O)(=O)c3ccc(F)cc3F)cc2s1
IC50 [4]: 18.4 µM (active)

COc1ccc(-c2cc(=O)oc3c(C)c(O)ccc23)cc1
IC50 [5]: > 79 µM (inactive) | AC50 [6]: 3.8 µM (active) | AC50 [7]: 5.69 µM (active) | AC50 [8]: 9.72 µM (active)

CCCCCC(=O)Nc1cc(S(=O)(=O)O)cc2cc(S(=O)(=O)O)cc(O)c12
IC50 [9]: 6.81 µM (active) | IC50 [10]: 30 µM (active) | IC50 [11]: 31.7 µM (active) | IC50 [12]: 19.2 µM (active) | IC50 [13]: 2.29 µM (active) | IC50 [14]: 0.92 µM (active)

CC1CCCCC1NC(=O)COC(=O)c1c2c(nc3ccccc13)/C(=C\c1ccco1)CC2 (stereo not drawn)
IC50 [15]: 6.81 µM (active) | IC50 [16]: 5.27 µM (active) | IC50 [17]: 14.6 µM (active)

C[C@@H]1CN([C@@H](C)CO)C(=O)Cc2cc(NS(=O)(=O)c3ccc(F)cc3)ccc2O[C@@H]1CN(C)Cc1ccc(Cl)c(Cl)c1
AC50 [18]: 11 µM (active)
